Source: PMC5218480 (PLoS ONE, 2017)

System: MV-4-11 cells
Experiment: Gene expression microarray analysis (Affymetrix PrimeView) and GSEA
Format: cell-based, human
Design: RFU PODN (11730768_x_at) / Fold change /veh PODN (11730768_x_at) / RFU LINC00158 (11744669_a_at) / Fold change /veh LINC00158 (11744669_a_at) / RFU DUSP10 (11751237_a_at) / Fold change /veh DUSP10 (11751237_a_at) / RFU ID3 (11757404_x_at) / Fold change /veh ID3 (11757404_x_at) / RFU PLEKHG5 (11737974_s_at) / Fold change /veh PLEKHG5 (11737974_s_at) / RFU LRRC4B (11730491_at) / Fold change /veh LRRC4B (11730491_at) / RFU GIMAP4 (11747438_a_at) / Fold change /veh GIMAP4 (11747438_a_at) / RFU KRT8 (11758183_x_at) / Fold change /veh KRT8 (11758183_x_at) / RFU CNN1 (11734310_a_at) / Fold change /veh CNN1 (11734310_a_at) / RFU VPS37D (11726825_at) / Fold change /veh VPS37D (11726825_at) / RFU C10orf10 (11716522_x_at) / Fold change /veh C10orf10 (11716522_x_at) / RFU KIR2DL2 /// KIR2DL4 /// KIR2DL5A /// KIR2DL5B /// KIR2DS1 /// KIR2DS2 /// KIR2DS3 /// KIR2DS4 /// KIR3DL3 /// KIR3DL3 /// KIR3DS1 (11738374_at) / Fold change /veh KIR2DL2 /// KIR2DL4 /// KIR2DL5A /// KIR2DL5B /// KIR2DS1 /// KIR2DS2 /// KIR2DS3 /// KIR2DS4 /// KIR3DL3 /// KIR3DL3 /// KIR3DS1 (11738374_at) / RFU C1QL1 (11718748_at) / Fold change /veh C1QL1 (11718748_at) / RFU TMPRSS4 (11747572_a_at) / Fold change /veh TMPRSS4 (11747572_a_at) / RFU HAMP (11756126_x_at) / Fold change /veh HAMP (11756126_x_at) / RFU RNFT2 (11725882_a_at) / Fold change /veh RNFT2 (11725882_a_at) / RFU NR4A2 (11747474_a_at) / Fold change /veh NR4A2 (11747474_a_at) / RFU ABCC12 (11746883_a_at) / Fold change /veh ABCC12 (11746883_a_at) / RFU TMEM136 (11760407_x_at) / Fold change /veh TMEM136 (11760407_x_at) / RFU CLDN22 /// WWC2 (11732394_at) / Fold change /veh CLDN22 /// WWC2 (11732394_at) / RFU HLA-DPB1 (11760878_x_at) / Fold change /veh HLA-DPB1 (11760878_x_at) / RFU SPINT1 (11716480_a_at) / Fold change /veh SPINT1 (11716480_a_at) / RFU GAP43 (11754022_s_at) / Fold change /veh GAP43 (11754022_s_at) / RFU A4GNT (11735810_at) / Fold change /veh A4GNT (11735810_at) / RFU PRB3 (11715151_x_at) / Fold change /veh PRB3 (11715151_x_at) / RFU TUBB4B (11761932_at) / Fold change /veh TUBB4B (11761932_at) / RFU CAPN14 (11732068_a_at) / Fold change /veh CAPN14 (11732068_a_at) / RFU TMCC2 (11721928_a_at) / Fold change /veh TMCC2 (11721928_a_at) / RFU IRGQ (11745062_a_at) / Fold change /veh IRGQ (11745062_a_at) / RFU FAM174B (11720279_a_at) / Fold change /veh FAM174B (11720279_a_at) / RFU TMPRSS4 (11748680_a_at) / Fold change /veh TMPRSS4 (11748680_a_at) / RFU FAM212B (11763350_a_at) / Fold change /veh FAM212B (11763350_a_at) / RFU PLEKHG5 (11743358_a_at) / Fold change /veh PLEKHG5 (11743358_a_at) / RFU ZSCAN30 (11745921_a_at) / Fold change /veh ZSCAN30 (11745921_a_at) / RFU CMKLR1 (11741424_a_at) / Fold change /veh CMKLR1 (11741424_a_at) / RFU LOC101060620 /// MAPK8IP1 (11723275_at) / Fold change /veh LOC101060620 /// MAPK8IP1 (11723275_at) / RFU SPTSSB (11747773_x_at) / Fold change /veh SPTSSB (11747773_x_at) / RFU PRSS12 (11739890_at) / Fold change /veh PRSS12 (11739890_at) / RFU BIN1 (11741810_x_at) / Fold change /veh BIN1 (11741810_x_at) / RFU WNT11 (11732464_a_at) / Fold change /veh WNT11 (11732464_a_at) / RFU C10orf10 (11716521_a_at) / Fold change /veh C10orf10 (11716521_a_at) / RFU C5orf56 (11738089_at) / Fold change /veh C5orf56 (11738089_at) / RFU CYB561 (11721691_x_at) / Fold change /veh CYB561 (11721691_x_at) / RFU ANKRD19P (11752326_a_at) / Fold change /veh ANKRD19P (11752326_a_at) / RFU OR2T12 /// OR2T33 /// OR2T8 (11738714_s_at) / Fold change /veh OR2T12 /// OR2T33 /// OR2T8 (11738714_s_at) / RFU VCAN (11748164_a_at) / Fold change /veh VCAN (11748164_a_at) / RFU JSRP1 (11732532_at) / Fold change /veh JSRP1 (11732532_at) / RFU KRTAP10-11 (11738290_x_at) / Fold change /veh KRTAP10-11 (11738290_x_at) / RFU MYO3A (11730013_a_at) / Fold change /veh MYO3A (11730013_a_at) / RFU EBF3 (11725865_a_at) / Fold change /veh EBF3 (11725865_a_at) / RFU CAMK2N1 (11719241_x_at) / Fold change /veh CAMK2N1 (11719241_x_at) / RFU C5orf56 (11738088_a_at) / Fold change /veh C5orf56 (11738088_a_at) / RFU OLFML3 (11715873_a_at) / Fold change /veh OLFML3 (11715873_a_at) / RFU LOC100653217 /// NTM (11731650_a_at) / Fold change /veh LOC100653217 /// NTM (11731650_a_at) / RFU MAPK11 (11762145_a_at) / Fold change /veh MAPK11 (11762145_a_at) / RFU FIZ1 (11724087_x_at) / Fold change /veh FIZ1 (11724087_x_at) / RFU OASL (11726364_x_at) / Fold change /veh OASL (11726364_x_at) / RFU SOX15 (11748057_x_at) / Fold change /veh SOX15 (11748057_x_at) / RFU CD79A (11719716_a_at) / Fold change /veh CD79A (11719716_a_at) / RFU HIST1H1D (11736915_at) / Fold change /veh HIST1H1D (11736915_at) / RFU CASKIN2 (11723855_a_at) / Fold change /veh CASKIN2 (11723855_a_at) / RFU LOC730098 (11760151_x_at) / Fold change /veh LOC730098 (11760151_x_at) / RFU OR4N2 (11742367_at) / Fold change /veh OR4N2 (11742367_at) / RFU PRRT2 (11749266_a_at) / Fold change /veh PRRT2 (11749266_a_at) / RFU SNX32 (11753110_a_at) / Fold change /veh SNX32 (11753110_a_at) / RFU CDHR5 (11726645_a_at) / Fold change /veh CDHR5 (11726645_a_at) / RFU RCAN1 (11760418_a_at) / Fold change /veh RCAN1 (11760418_a_at) / RFU FAM167A (11723789_a_at) / Fold change /veh FAM167A (11723789_a_at) / RFU FAM26E (11764081_at) / Fold change /veh FAM26E (11764081_at) / RFU ISYNA1 (11749810_s_at) / Fold change /veh ISYNA1 (11749810_s_at) / RFU ACY1 (11761880_at) / Fold change /veh ACY1 (11761880_at) / RFU 11764098_at / Fold change /veh 11764098_at / RFU SAMD14 (11745864_x_at) / Fold change /veh SAMD14 (11745864_x_at) / RFU NPB (11741838_a_at) / Fold change /veh NPB (11741838_a_at) / RFU TMPRSS6 (11731388_a_at) / Fold change /veh TMPRSS6 (11731388_a_at) / RFU KRTAP10-2 (11738614_at) / Fold change /veh KRTAP10-2 (11738614_at) / RFU ARHGAP8 /// PRR5-ARHGAP8 (11727945_x_at) / Fold change /veh ARHGAP8 /// PRR5-ARHGAP8 (11727945_x_at) / RFU KRTAP5-7 /// NADSYN1 (11734609_at) / Fold change /veh KRTAP5-7 /// NADSYN1 (11734609_at) / RFU RASL12 (11751679_a_at) / Fold change /veh RASL12 (11751679_a_at) / RFU CDKN2B (11736163_a_at) / Fold change /veh CDKN2B (11736163_a_at) / RFU PRF1 (11729649_at) / Fold change /veh PRF1 (11729649_at) / RFU, ZNF638 /// ZNF638-IT1 / Fold change vs veh, ZNF638 /// ZNF638-IT1 / RFU, PANK3 / Fold change vs veh, PANK3 / RFU, SH3YL1 / Fold change vs veh, SH3YL1 / RFU, ZEB2 / Fold change vs veh, ZEB2 / RFU, NRIP1 / Fold change vs veh, NRIP1 / RFU, PTTG1IP / Fold change vs veh, PTTG1IP / RFU, CAPN2 / Fold change vs veh, CAPN2 / RFU, MED14 / Fold change vs veh, MED14 / RFU, SNORA58 / Fold change vs veh, SNORA58 / RFU, C1orf63 / Fold change vs veh, C1orf63 / RFU, LRRFIP1 / Fold change vs veh, LRRFIP1 / RFU, NDUFAF7 / Fold change vs veh, NDUFAF7 / RFU, SLC12A2 / Fold change vs veh, SLC12A2 / RFU, IBTK / Fold change vs veh, IBTK / RFU, ESF1 / Fold change vs veh, ESF1 / Fold change vs veh, TMEM50B / RFU, TAOK1 / Fold change vs veh, TAOK1 / RFU, ACBD3 / Fold change vs veh, ACBD3 / RFU, TMA16 / Fold change vs veh, TMA16 / RFU, RWDD3 / Fold change vs veh, RWDD3 / RFU, BCAT1 / Fold change vs veh, BCAT1 / RFU, EDEM3 / Fold change vs veh, EDEM3 / RFU, TMEM33 / Fold change vs veh, TMEM33 / RFU, WDR75 / Fold change vs veh, WDR75 / RFU, AHCTF1 / Fold change vs veh, AHCTF1 / RFU, TFRC / Fold change vs veh, TFRC / RFU, ZDHHC17 / Fold change vs veh, ZDHHC17 / RFU, NOM1 / Fold change vs veh, NOM1 / RFU, ARL8B / Fold change vs veh, ARL8B / RFU, ZBTB11 / Fold change vs veh, ZBTB11 / RFU, TAMM41 / Fold change vs veh, TAMM41 / RFU, KIAA1704 /// LOC100996395 / Fold change vs veh, KIAA1704 /// LOC100996395 / RFU, ING1 / Fold change vs veh, ING1 / RFU, TRMT61B / Fold change vs veh, TRMT61B / RFU, FUBP3 / Fold change vs veh, FUBP3 / RFU, TP53 / Fold change vs veh, TP53 / RFU, TNKS2 / Fold change vs veh, TNKS2 / RFU, ZFP14 / Fold change vs veh, ZFP14 / RFU, ACTR2 / Fold change vs veh, ACTR2 / RFU, PPP3R1 / Fold change vs veh, PPP3R1 / RFU, PIK3R1 / Fold change vs veh, PIK3R1 / RFU, HNRNPA1 / Fold change vs veh, HNRNPA1 / RFU, RNF170 / Fold change vs veh, RNF170 / RFU, ZNF28 / Fold change vs veh, ZNF28 / RFU, RNGTT / Fold change vs veh, RNGTT / RFU, OGT / Fold change vs veh, OGT / RFU, BRD1 / Fold change vs veh, BRD1 / RFU, MARS / Fold change vs veh, MARS / RFU, ZNF655 / Fold change vs veh, ZNF655 / RFU, FAHD1 / Fold change vs veh, FAHD1 / RFU, BDP1 / Fold change vs veh, BDP1 / RFU, LRRCC1 / Fold change vs veh, LRRCC1 / RFU, ARID1A / Fold change vs veh, ARID1A / RFU, ZNF146 / Fold change vs veh, ZNF146 / RFU, ZNF330 / Fold change vs veh, ZNF330 / RFU, GPN3 / Fold change vs veh, GPN3 / RFU, C9orf123 / Fold change vs veh, C9orf123 / RFU, N4BP2L2 / Fold change vs veh, N4BP2L2 / RFU, ARFIP1 / Fold change vs veh, ARFIP1 / RFU, FAM179B / Fold change vs veh, FAM179B / RFU, BCL10 / Fold change vs veh, BCL10 / RFU, UHRF1BP1L / Fold change vs veh, UHRF1BP1L / RFU, BET1 / Fold change vs veh, BET1 / RFU, CNOT2 / Fold change vs veh, CNOT2 / RFU, ZNF268 / Fold change vs veh, ZNF268 / Fold change vs veh, ZNF507 / RFU, DGCR2 / Fold change vs veh, DGCR2 / RFU, WDSUB1 / Fold change vs veh, WDSUB1 / Fold change vs veh, HSP90B1 /// MIR3652 / RFU, ADSS / Fold change vs veh, ADSS / RFU, GK / Fold change vs veh, GK / RFU, ZNF148 / Fold change vs veh, ZNF148 / RFU, TAF9 / Fold change vs veh, TAF9 / RFU, SLC1A5 / Fold change vs veh, SLC1A5 / RFU, SLMO2 / Fold change vs veh, SLMO2 / RFU, ABCC4 / Fold change vs veh, ABCC4 / RFU, LOC101060439 /// RAP1B / Fold change vs veh, LOC101060439 /// RAP1B / RFU, RFX7 / Fold change vs veh, RFX7 / RFU, GTPBP10 / Fold change vs veh, GTPBP10 / RFU, CNEP1R1 / Fold change vs veh, CNEP1R1 / RFU, BIVM-ERCC5 /// ERCC5 / Fold change vs veh, BIVM-ERCC5 /// ERCC5 / RFU, ILF3 / Fold change vs veh, ILF3 / RFU 11762660_at / Fold change /veh 11762660_at / RFU VCAN (11757783_s_at) / Fold change /veh VCAN (11757783_s_at) / RFU DDX43 (11728927_at) / Fold change /veh DDX43 (11728927_at) / RFU KRT8 (11758188_x_at) / Fold change /veh KRT8 (11758188_x_at) / RFU NKD1 (11759106_at) / Fold change /veh NKD1 (11759106_at) / RFU SRD5A1 (11742802_a_at) / Fold change /veh SRD5A1 (11742802_a_at) / RFU TPSAB1 /// TPSB2 (11721975_s_at) / Fold change /veh TPSAB1 /// TPSB2 (11721975_s_at) / RFU GSTM3 (11746129_a_at) / Fold change /veh GSTM3 (11746129_a_at) / RFU IL23R (11737362_x_at) / Fold change /veh IL23R (11737362_x_at) / RFU TMEM51 (11727254_a_at) / Fold change /veh TMEM51 (11727254_a_at) / RFU PIWIL2 (11732686_x_at) / Fold change /veh PIWIL2 (11732686_x_at) / RFU ORM1 (11744905_x_at) / Fold change /veh ORM1 (11744905_x_at) / RFU CCDC152 (11743942_at) / Fold change /veh CCDC152 (11743942_at) / RFU ECM1 (11717891_a_at) / Fold change /veh ECM1 (11717891_a_at) / RFU IL23R (11748794_a_at) / Fold change /veh IL23R (11748794_a_at) / RFU TNFAIP8L3 (11732012_x_at) / Fold change /veh TNFAIP8L3 (11732012_x_at) / RFU MBOAT4 (11741988_at) / Fold change /veh MBOAT4 (11741988_at) / RFU 11764193_at / Fold change /veh 11764193_at / RFU TMEM53 (11763286_at) / Fold change /veh TMEM53 (11763286_at) / RFU MAGEB2 (11727129_at) / Fold change /veh MAGEB2 (11727129_at) / RFU TMEM200A (11744735_a_at) / Fold change /veh TMEM200A (11744735_a_at) / RFU CCDC152 (11751479_a_at) / Fold change /veh CCDC152 (11751479_a_at) / RFU FAM211A (11726209_a_at) / Fold change /veh FAM211A (11726209_a_at) / RFU RGS16 (11746705_a_at) / Fold change /veh RGS16 (11746705_a_at) / RFU VCAN (11755009_s_at) / Fold change /veh VCAN (11755009_s_at) / RFU RHOB (11743442_s_at) / Fold change /veh RHOB (11743442_s_at) / RFU RGS16 (11720943_a_at) / Fold change /veh RGS16 (11720943_a_at) / RFU RGS16 (11720944_at) / Fold change /veh RGS16 (11720944_at) / RFU, VPS4B / Fold change vs veh, VPS4B / RFU, CREB1 / Fold change vs veh, CREB1 / RFU, DNAJC13 / Fold change vs veh, DNAJC13 / RFU, GNAQ / Fold change vs veh, GNAQ / RFU, CDK5R1 / Fold change vs veh, CDK5R1 / RFU, ZRANB3 / Fold change vs veh, ZRANB3 / RFU, CUL4A / Fold change vs veh, CUL4A / RFU, CCNY / Fold change vs veh, CCNY / RFU, UFL1 / Fold change vs veh, UFL1 / RFU, COG3 / Fold change vs veh, COG3 / RFU, DIAPH2 / Fold change vs veh, DIAPH2 / RFU, SKA2 / Fold change vs veh, SKA2 / RFU, AFF3 / Fold change vs veh, AFF3 / RFU, LMF1 / Fold change vs veh, LMF1 / RFU, IPO11 / Fold change vs veh, IPO11 / RFU, DFFB / Fold change vs veh, DFFB / RFU, FOXP1 / Fold change vs veh, FOXP1 / RFU, CARD8 / Fold change vs veh, CARD8 / RFU, STRN3 / Fold change vs veh, STRN3 / RFU, ADK / Fold change vs veh, ADK / RFU, RASSF2 / Fold change vs veh, RASSF2 / RFU, WIPF1 / Fold change vs veh, WIPF1 / RFU, LARP1B / Fold change vs veh, LARP1B / RFU, RASA1 / Fold change vs veh, RASA1 / RFU, RB1 / Fold change vs veh, RB1 / RFU, PPFIA1 / Fold change vs veh, PPFIA1 / RFU, MAT2A / Fold change vs veh, MAT2A / RFU, CCT5 / Fold change vs veh, CCT5 / RFU, WDR92 / Fold change vs veh, WDR92 / RFU, CUX1 / Fold change vs veh, CUX1 / RFU, TTC7A / Fold change vs veh, TTC7A / RFU, TMEM135 / Fold change vs veh, TMEM135 / RFU, DEPTOR / Fold change vs veh, DEPTOR / RFU, CPM / Fold change vs veh, CPM / RFU, DNAJB6 / Fold change vs veh, DNAJB6 / RFU, CACNA2D3 / Fold change vs veh, CACNA2D3 / RFU, DTX4 / Fold change vs veh, DTX4 / RFU, TFCP2 / Fold change vs veh, TFCP2 / RFU, GMCL1 /// GMCL1P1 / Fold change vs veh, GMCL1 /// GMCL1P1 / RFU, AEBP2 / Fold change vs veh, AEBP2 / RFU, SNHG1 /// SNORD22 /// SNORD25 /// SNORD26 /// SNORD27 /// SNORD28 /// SNORD29 /// SNORD31 / Fold change vs veh, SNHG1 /// SNORD22 /// SNORD25 /// SNORD26 /// SNORD27 /// SNORD28 /// SNORD29 /// SNORD31 / Fold change (Aza/veh), C12orf56 (ProbeSet 11735607_a_at) / Fold change (ACY-1035/veh), C12orf56 (ProbeSet 11735607_a_at) / Fold change (Aza/veh), FGFR1OP (ProbeSet 11751329_s_at) / Fold change (ACY-1035/veh), FGFR1OP (ProbeSet 11751329_s_at) / Fold change (Aza/veh), VPS36 (ProbeSet 11739960_a_at) / Fold change (ACY-1035/veh), VPS36 (ProbeSet 11739960_a_at) / RFU SYPL1 (11715823_x_at) / Fold change /veh SYPL1 (11715823_x_at) / RFU IGFBP7 (11715501_s_at) / Fold change /veh IGFBP7 (11715501_s_at) / RFU REEP3 (11722064_at) / Fold change /veh REEP3 (11722064_at) / RFU IGLL1 (11728026_x_at) / Fold change /veh IGLL1 (11728026_x_at): dose or concentration left out as unconfirmed
Settings: ProbeSet 11753623_s_at; LIST D

Nc1ccc(-c2cccs2)cc1NC(=O)c1ccc2c(c1)cc(C1CC1)n2CCN1CCOCC1 [ACY-1035]
Fold change vs veh, LOC101060439 /// RAP1B: 0.85
